Converted amounts (≈) assume the structure as drawn. Like-named read-outs stand apart in the source and are kept apart here.
Experiments:
Format in all cases: cell-based
[1] = system: Clostridium difficile ATCC 700057; assay: MIC against anaerobes, agar dilution (CLSI), reference strain; conditions: Clostridioides difficile, ATCC700057, 48 h, read-out: MIC, C. difficile ATCC 700057
[2] = system: Bacteroides fragilis ATCC 25285; assay: as above; conditions: ATCC25285, 48 h, read-out: MIC, B. fragilis ATCC 25285
[3] = system: Bacteroides thetaiotaomicron ATCC 29741; assay: microbe, parasite or virus in culture; conditions: ATCC29741, 48 h, read-out: MIC, B. thetaiotaomicron ATCC
[4] = system: strains of Clostridium perfringens; assay: microbe, parasite or virus in culture
[5] = system: strains of Finegoldia magna; assay: MIC against anaerobes, agar dilution (CLSI), clinical isolates
[6] = system: strains of Parvimonas micra; assay: as above
[7] = system: strains of Peptoniphilus harei; assay: as above
[8] = system: strains of Peptostreptococcus anaerobius; assay: as above
[9] = system: strains of Propionibacterium acnes; assay: as above; conditions: Cutibacterium acnes
[10] = system: strains of Bacteroides fragilis; assay: as above
[11] = system: strains of Bacteroides thetaiotaomicron; assay: microbe, parasite or virus in culture
[12] = system: strains of Prevotella bivia; assay: MIC against anaerobes, agar dilution (CLSI), clinical isolates
[13] = system: strains of Prevotella melaninogenica; assay: as above

CN[C@H](CC(C)C)C(=O)N[C@H]1C(=O)N[C@@H](CC(N)=O)C(=O)N[C@H]2C(=O)N[C@H]3C(=O)N[C@H](C(=O)N[C@H](C(=O)O)c4cc(O)cc(O)c4-c4cc3ccc4O)[C@H](O)c3ccc(c(Cl)c3)Oc3cc2cc(c3O[C@@H]2O[C@H](CO)[C@@H](O)[C@H](O)[C@H]2O[C@H]2C[C@](C)(N)[C@H](O)[C@H](C)O2)Oc2ccc(cc2Cl)[C@H]1O [VAN, vancomycin, reference compound]
MIC [1]: 1 to 4 µg/mL (≈ 0.69 to 2.76 µM)
MIC [2]: 16 to 64 µg/mL (≈ 11 to 44.2 µM)
MIC [3]: 16 to 64 µg/mL (≈ 11 to 44.2 µM)
MIC [4]: < 1 µg/mL
MIC ([5]; Finegoldia magna strain 1): A (a MIC (in μg/mL) of less than 1 is assigned the letter A)
MIC ([5]; Finegoldia magna strain 2): A (a MIC (in μg/mL) of less than 1 is assigned the letter A)
MIC ([5]; Finegoldia magna strain 3): A (a MIC (in μg/mL) of less than 1 is assigned the letter A)
MIC ([5]; Finegoldia magna strain 4): A (a MIC (in μg/mL) of less than 1 is assigned the letter A)
MIC ([5]; Finegoldia magna strain 5): A (a MIC (in μg/mL) of less than 1 is assigned the letter A)
MIC ([5]; Finegoldia magna strain 6, read-out: MIC): < 1 µg/mL
MIC ([5]; Finegoldia magna strain 7): A (a MIC (in μg/mL) of less than 1 is assigned the letter A)
MIC ([5]; Finegoldia magna strain 8): A (a MIC (in μg/mL) of less than 1 is assigned the letter A)
MIC ([5]; Finegoldia magna strain 9): A (a MIC (in μg/mL) of less than 1 is assigned the letter A)
MIC ([5]; Finegoldia magna strain 10): A (a MIC (in μg/mL) of less than 1 is assigned the letter A)
MIC ([5]; Finegoldia magna strain 11): A (a MIC (in μg/mL) of less than 1 is assigned the letter A)
MIC ([5]; Finegoldia magna strain 12): A (a MIC (in μg/mL) of less than 1 is assigned the letter A)
MIC ([6]; Parvimonas micra strain 1): < 1 µg/mL
MIC ([6]; Parvimonas micra strain 2): < 1 µg/mL
MIC ([6]; Parvimonas micra strain 3): < 1 µg/mL
MIC ([6]; Parvimonas micra strain 4): 1 to 4 µg/mL (≈ 0.69 to 2.76 µM)
MIC ([6]; Parvimonas micra strain 5): 1 to 4 µg/mL (≈ 0.69 to 2.76 µM)
MIC ([6]; Parvimonas micra strain 6): < 1 µg/mL
MIC ([6]; Parvimonas micra strain 7): 1 to 4 µg/mL (≈ 0.69 to 2.76 µM)
MIC ([6]; Parvimonas micra strain 8): < 1 µg/mL
MIC ([6]; Parvimonas micra strain 9): < 1 µg/mL
MIC ([6]; Parvimonas micra strain 10): < 1 µg/mL
MIC ([6]; Parvimonas micra strain 11): < 1 µg/mL
MIC ([6]; Parvimonas micra strain 12): < 1 µg/mL
MIC ([7]; Peptoniphilus harei strain 1): A (a MIC (in μg/mL) of less than 1 is assigned the letter A)
MIC ([7]; Peptoniphilus harei strain 2): A (a MIC (in μg/mL) of less than 1 is assigned the letter A)
MIC ([7]; Peptoniphilus harei strain 3): A (a MIC (in μg/mL) of less than 1 is assigned the letter A)
MIC ([7]; Peptoniphilus harei strain 4): A (a MIC (in μg/mL) of less than 1 is assigned the letter A)
MIC ([7]; Peptoniphilus harei strain 5): A (a MIC (in μg/mL) of less than 1 is assigned the letter A)
MIC ([7]; Peptoniphilus harei strain 6, read-out: MIC): < 1 µg/mL
MIC ([7]; Peptoniphilus harei strain 7): A (a MIC (in μg/mL) of less than 1 is assigned the letter A)
MIC ([7]; Peptoniphilus harei strain 8): A (a MIC (in μg/mL) of less than 1 is assigned the letter A)
MIC ([7]; Peptoniphilus harei strain 9): A (a MIC (in μg/mL) of less than 1 is assigned the letter A)
MIC ([7]; Peptoniphilus harei strain 10): A (a MIC (in μg/mL) of less than 1 is assigned the letter A)
MIC ([7]; Peptoniphilus harei strain 11): A (a MIC (in μg/mL) of less than 1 is assigned the letter A)
MIC ([7]; Peptoniphilus harei strain 12): A (a MIC (in μg/mL) of less than 1 is assigned the letter A)
MIC ([8]; Peptostreptococcus anaerobius strain 1): < 1 µg/mL
MIC ([8]; Peptostreptococcus anaerobius strain 2): < 1 µg/mL
MIC ([8]; Peptostreptococcus anaerobius strain 3): < 1 µg/mL
MIC ([8]; Peptostreptococcus anaerobius strain 4): > 64 µg/mL
MIC ([8]; Peptostreptococcus anaerobius strain 5): < 1 µg/mL
MIC ([8]; Peptostreptococcus anaerobius strain 6): < 1 µg/mL
MIC ([8]; Peptostreptococcus anaerobius strain 7): < 1 µg/mL
MIC ([8]; Peptostreptococcus anaerobius strain 8): < 1 µg/mL
MIC ([8]; Peptostreptococcus anaerobius strain 9): < 1 µg/mL
MIC ([8]; Peptostreptococcus anaerobius strain 10): < 1 µg/mL
MIC ([9]; Propionibacterium acnes strain 1): < 1 µg/mL
MIC ([9]; Propionibacterium acnes strain 2): < 1 µg/mL
MIC ([9]; Propionibacterium acnes strain 3): < 1 µg/mL
MIC ([9]; Propionibacterium acnes strain 4): < 1 µg/mL
MIC ([9]; Propionibacterium acnes strain 5): < 1 µg/mL
MIC ([9]; Propionibacterium acnes strain 6): < 1 µg/mL
MIC ([9]; Propionibacterium acnes strain 7): < 1 µg/mL
MIC ([9]; Propionibacterium acnes strain 8): < 1 µg/mL
MIC ([9]; Propionibacterium acnes strain 9): < 1 µg/mL
MIC ([9]; Propionibacterium acnes strain 10): < 1 µg/mL
MIC ([9]; Propionibacterium acnes strain 11): < 1 µg/mL
MIC ([9]; Propionibacterium acnes strain 12): 4 to 16 µg/mL (≈ 2.76 to 11 µM)
MIC ([10]; Bacteroides fragilis strain 1): 16 to 64 µg/mL (≈ 11 to 44.2 µM)
MIC ([10]; Bacteroides fragilis strain 2): 16 to 64 µg/mL (≈ 11 to 44.2 µM)
MIC ([10]; Bacteroides fragilis strain 3): 4 to 16 µg/mL (≈ 2.76 to 11 µM)
MIC ([10]; Bacteroides fragilis strain 4): 16 to 64 µg/mL (≈ 11 to 44.2 µM)
MIC ([10]; Bacteroides fragilis strain 5): 16 to 64 µg/mL (≈ 11 to 44.2 µM)
MIC ([10]; Bacteroides fragilis strain 6): 4 to 16 µg/mL (≈ 2.76 to 11 µM)
MIC ([10]; Bacteroides fragilis strain 7): 4 to 16 µg/mL (≈ 2.76 to 11 µM)
MIC ([10]; Bacteroides fragilis strain 8): 16 to 64 µg/mL (≈ 11 to 44.2 µM)
MIC ([10]; Bacteroides fragilis strain 9): 4 to 16 µg/mL (≈ 2.76 to 11 µM)
MIC ([10]; Bacteroides fragilis strain 10): 16 to 64 µg/mL (≈ 11 to 44.2 µM)
MIC ([10]; Bacteroides fragilis strain 11): 16 to 64 µg/mL (≈ 11 to 44.2 µM)
MIC ([10]; Bacteroides fragilis strain 12): 16 to 64 µg/mL (≈ 11 to 44.2 µM)
MIC ([11]; Bacteroides thetaiotaomicron strain 1, read-out: MIC): 16 to 64 µg/mL (≈ 11 to 44.2 µM)
MIC ([11]; Bacteroides thetaiotaomicron strain 2, read-out: MIC): 16 to 64 µg/mL (≈ 11 to 44.2 µM)
MIC ([11]; Bacteroides thetaiotaomicron strain 3, read-out: MIC): 16 to 64 µg/mL (≈ 11 to 44.2 µM)
MIC ([11]; Bacteroides thetaiotaomicron strain 4, read-out: MIC): 16 to 64 µg/mL (≈ 11 to 44.2 µM)
MIC ([11]; Bacteroides thetaiotaomicron strain 5, read-out: MIC): 16 to 64 µg/mL (≈ 11 to 44.2 µM)
MIC ([11]; Bacteroides thetaiotaomicron strain 6, read-out: MIC): 16 to 64 µg/mL (≈ 11 to 44.2 µM)
MIC ([11]; Bacteroides thetaiotaomicron strain 7, read-out: MIC): 16 to 64 µg/mL (≈ 11 to 44.2 µM)
MIC ([11]; Bacteroides thetaiotaomicron strain 8, read-out: MIC): 16 to 64 µg/mL (≈ 11 to 44.2 µM)
MIC ([11]; Bacteroides thetaiotaomicron strain 9, read-out: MIC): < 1 µg/mL
MIC ([11]; Bacteroides thetaiotaomicron strain 10, read-out: MIC): 16 to 64 µg/mL (≈ 11 to 44.2 µM)
MIC ([11]; Bacteroides thetaiotaomicron strain 11, read-out: MIC): 16 to 64 µg/mL (≈ 11 to 44.2 µM)
MIC ([12]; Prevotella bivia strain 1): > 64 µg/mL
MIC ([12]; Prevotella bivia strain 2): > 64 µg/mL
MIC ([12]; Prevotella bivia strain 3): 16 to 64 µg/mL (≈ 11 to 44.2 µM)
MIC ([12]; Prevotella bivia strain 4): > 64 µg/mL
MIC ([12]; Prevotella bivia strain 5): > 64 µg/mL
MIC ([12]; Prevotella bivia strain 6): > 64 µg/mL
MIC ([12]; Prevotella bivia strain 7): > 64 µg/mL
MIC ([12]; Prevotella bivia strain 8): 16 to 64 µg/mL (≈ 11 to 44.2 µM)
MIC ([12]; Prevotella bivia strain 9): > 64 µg/mL
MIC ([12]; Prevotella bivia strain 10): 16 to 64 µg/mL (≈ 11 to 44.2 µM)
MIC ([13]; Prevotella melaninogenica strain 1): > 64 µg/mL
MIC ([13]; Prevotella melaninogenica strain 2): 4 to 16 µg/mL (≈ 2.76 to 11 µM)
MIC ([13]; Prevotella melaninogenica strain 3): > 64 µg/mL
MIC ([13]; Prevotella melaninogenica strain 4): > 64 µg/mL
MIC ([13]; Prevotella melaninogenica strain 5): 16 to 64 µg/mL (≈ 11 to 44.2 µM)
MIC ([13]; Prevotella melaninogenica strain 6): > 64 µg/mL
MIC ([13]; Prevotella melaninogenica strain 7): 16 to 64 µg/mL (≈ 11 to 44.2 µM)
MIC ([13]; Prevotella melaninogenica strain 8): 4 to 16 µg/mL (≈ 2.76 to 11 µM)
MIC ([13]; Prevotella melaninogenica strain 9): 4 to 16 µg/mL (≈ 2.76 to 11 µM)
MIC ([13]; Prevotella melaninogenica strain 10): > 64 µg/mL
MIC ([13]; Prevotella melaninogenica strain 11): > 64 µg/mL
